Consider 8 compounds from patent US7659304B2, “Tryptophan derivative and application thereof” (priority 2005, dated 2010).

Series [1] concerns osteoclasts. Put plainly: Influence on osteoclasts: tartrate-resistant acid phosphatase (TRAP) activity in cultured goldfish scales. It is filed as cell-based. As to conditions: for TRAP activity: Amount of para-nitrophenol produced (mean ± standard error): 10^−6 M, scales cultured at 25° C. for 6 hours, control 0.700 ± 0.041. The protocol: The influence of the tryptophan derivatives on bone cells was tested according to a method described in N. Suzuki and A. Hattori, J. Pineal Res., 33, 253-258 (2002). Required pieces of scales were ablated from female goldfish (body weight: around 30 g) under anesthesia with MS222 (ethyl 3-aminobenzoate, methane sulfonic acid salt) (Aldrich). The scales were washed twice with an Eagle's minimum essential medium (Dainippon Pharmaceutical Co., Ltd.) containing 1% antibiotic (penicillin-streptomycin mixture). The same medium was added at 1 ml/well to a 24-well plate. The scales were added at several pieces (usually eight)/well thereto. Each tryptophan derivative was added at a concentration of 10^−6 M to each well. Subsequently, these scales were cultured at 25° C. for 6 hours. A tryptophan derivative-free group (control) was also prepared to compare the effects on bone cells. In this test, two groups, one for osteoclasts and the other for osteoblasts, were used for the tryptophan derivatives and compared them with the control. To ensure the obtained results, the duplicate test was performed. Thus, in the 24-well plate, 6 tryptophan derivatives can be examined. After culture, the medium was removed. The scales were fixed by the addition of 0.05 M cacodylic acid buffer (pH 7.4) containing 10% formalin. These scales were stored in 0.05 M cacodylic acid buffer at 4° C. until enzyme activity measurement. • (1) Influence on Osteoclasts: Tartrate-Resistant Acid Phosphatase (TRAP) Activity Measurement The scales treated by fixation were moved and weighed. After measurement, the scales were put into a 96-well microplate. To each well, 2001 of 100 mM acetate buffer (pH 5.3) containing 20 mM tartrate and 10 mM para-nitrophenol phosphate (substrate) was added. Reaction was performed at 25° C. for 20 minutes and subsequently terminated by the addition of a 3 M sodium hydroxide aqueous solution (50±1). Then, […] of the solution after the completion of reaction was transferred to another microplate. The amount of para-nitrophenol (p-NP) produced by TRAP was measured with a spectrophotometer (405 nm). The osteoclast activity was indicated as the amount of p-NP produced by the decomposition of para-nitrophenol phosphate per g of scale per minute.

Series [2] concerns osteoblasts. Briefly: Influence on osteoblasts: alkaline phosphatase (ALP) activity in cultured goldfish scales. It is filed as cell-based. As to conditions: for ALP activity: Amount of para-nitrophenol produced (mean ± standard error): 10^−6 M, scales cultured at 25° C. for 6 hours, control 1.37 ± 0.18. How it is done:
The influence of the tryptophan derivatives on bone cells was tested according to a method described in N. Suzuki and A. Hattori, J. Pineal Res., 33, 253-258 (2002). Required pieces of scales were ablated from female goldfish (body weight: around 30 g) under anesthesia with MS222 (ethyl 3-aminobenzoate, methane sulfonic acid salt) (Aldrich). The scales were washed twice with an Eagle's minimum essential medium (Dainippon Pharmaceutical Co., Ltd.) containing 1% antibiotic (penicillin-streptomycin mixture). The same medium was added at 1 ml/well to a 24-well plate. The scales were added at several pieces (usually eight)/well thereto. Each tryptophan derivative was added at a concentration of 10^−6 M to each well. Subsequently, these scales were cultured at 25° C. for 6 hours. A tryptophan derivative-free group (control) was also prepared to compare the effects on bone cells. In this test, two groups, one for osteoclasts and the other for osteoblasts, were used for the tryptophan derivatives and compared them with the control. To ensure the obtained results, the duplicate test was performed. Thus, in the 24-well plate, 6 tryptophan derivatives can be examined. After culture, the medium was removed. The scales were fixed by the addition of 0.05 M cacodylic acid buffer (pH 7.4) containing 10% formalin. These scales were stored in 0.05 M cacodylic acid buffer at 4° C. until enzyme activity measurement. • (1) […] The scales treated by fixation were moved and weighed. After measurement, the scales were put into a 96-well microplate. To each well, 2001 of 100 mM tris-HCl buffer (pH 9.5) containing 10 mM para-nitrophenol phosphate (substrate), 1 mM magnesium chloride, and 0.1 mM zinc chloride was added. Reaction was performed at 25° C. for 15 minutes and terminated by the addition of a 3 M sodium hydroxide aqueous solution (50 μl). Then, 150 μl of the solution after the completion of reaction was transferred to another microplate. The amount of p-NP produced by ALP was measured with a spectrophotometer (405 nm) to determine the activity.

Series [3] concerns bone metabolism of ovariectomized model rat. Briefly: Effect on bone metabolism of ovariectomized model rat (femur pQCT). Format: in vivo. The note with it: OVX rats, 0.17 mg/rat by gavage once a day for 6 weeks. The protocol: A test substance was the compound No. 4 ((S)-(+)-N-acetyl-2,4,6-tribromo-5-methoxytryptophan methyl ester), which was a white powder having a molecular weight of 527, and was stored at room temperature. Commercially available dimethyl sulfoxide (DMSO, Wako Pure Chemical Industries, Ltd.) was purchased as a solvent and stored at room temperature. • 2. Method for Preparing Test Substance
The solution of the test substance was administered in a volume of 100 μL/rat in consideration of the toxicity of the solvent. For a dose of 0.17 mg of the test substance (compound No. 4)/rat, 86.6 mg of the test substance was weighed and dissolved in 50.9 mL of the solvent (0.17 mg/0.1 mL). • 3. Animal Used and Raising Conditions
Five-week-old female SPF SD (Crl:SD) rats were obtained from Charles River Laboratories Japan, Inc. After seven-day acclimation and quarantine, 6-week-old ovariectomized models were prepared. Administration was performed from the day following model preparation.
The animals were raised in the rat/mouse room of a test laboratory set to a temperature of 24±3° C., a humidity of 50±20%, the number of ventilations of approximately 10 to 20 times/hour, a lighting time of 12 hours/day (8:00 light on, 20:00 light off), and an illuminance of 150 to 300 Lux. • 4. Administration Method
The test substance was administered once a day for 6 weeks by gavage administration to the rats without anesthesia under non-fasting by use of a feeding needle made of a metal and a syringe barrel. In this context, 1 week is defined as 7 days, and the day following ovariectomy when the administration was initiated is defined as Day 1. The amount of the solution administered was set to 0.1 mL/rat.
The bone densities of the left femurs were measured using a peripheral bone density measurement apparatus PQCT (abbreviation of peripheral Quantitative Computed Tomography, XCT-Research SA+, Stratec). For cancellous bone parameter measurement, the metaphyseal region was sliced at a distance of 3 mm from the distal growth cartilage. Alternatively, for cortical bone parameter measurement, the diaphyseal region was sliced at a distance of 13 mm therefrom. The measurement parameters were a bone density (total density and cancellous bone), an area (total area and cancellous bone), and SSI (Stress Strain Index) for the metaphyseal region and were the bone density, area, and thickness of the cortical bone, a periosteal circumference length, an endosteal circumference length, and SSI for the diaphyseal region. Software used was Rev.5.50e.

Series [4] relates to osteoclasts. As to conditions: literature report; cited from earlier work.
In series [5] the test system is osteoblasts. The note with it: literature report; cited from earlier work.

In general, melting point refers to the temperature, or range, at which the solid turns liquid.

On to `COC(=O)[C@H](Cc1c(Br)[nH]c2cc(Br)c(OC)cc12)NC(C)=O` [Compound 2, (S)-(+)-N-acetyl-2,6-dibromo-5-methoxytryptophan methyl ester], for which the melting point lay within 174 to 175 °C.
The same measure, in the same setting: in the case of `COC(=O)[C@H](Cc1c(Br)[nH]c2c(Br)cc(OC)c(Br)c12)NC(C)=O` [Compound 3, (S)-(+)-N-acetyl-2,4,7-tribromo-5-methoxytryptophan methyl ester] it was 218 to 220 °C.
As for `COC(=O)[C@H](Cc1c(Br)[nH]c2cc(Br)c(OC)c(Br)c12)NC(C)=O` [Compound 4, (S)-(+)-N-acetyl-2,4,6-tribromo-5-methoxytryptophan methyl ester], the melting point was in the range of 198 to 199 °C. Besides, the “TRAP activity: Amount of para-nitrophenol produced (mean ± standard error)” value (from here on “TRAP activity: Amount … (mean ± standard error)”) with osteoclasts [1] is listed as 0.699 ± 0.064 nmol/g of scale/min. Further, in the series on osteoblasts [2], the “ALP activity: Amount of para-nitrophenol produced (mean ± standard error)” value (from here on “ALP activity: Amount … (mean ± standard error)”) is on record as 2.62 ± 0.20 nmol/g of scale/min. In series [3], the “bone density of the cancellous bone (metaphyseal region) compared with OVX + Vehicle group (in words)” value is recorded as “increased”, the “change in the diaphyseal region compared with OVX + Vehicle group (in words)” value was “no change” and the “total bone density of the metaphyseal region compared with OVX + Vehicle group (in words)” value was “increased”. Also, in series [3] (left femur, OVX + Vehicle 6.753 ± 0.380), the “Diaphyseal region SSI Polar” value is 6.877 ± 0.605. The “Diaphyseal region Endosteal circumference length” value in series [3] (left femur, OVX + Vehicle 8.360 ± 0.467) stood at 8.260 ± 0.666 mm. The “Metaphyseal region Area Cancellous bone” value in series [3] (left femur, OVX + Vehicle 9.47 ± 1.52) is listed as 7.44 ± 0.47 mm^2. For the same compound, in series [3] (left femur, OVX + Vehicle 9.801 ± 0.574), the “Metaphyseal region SSI Polar” value is 11.474 ± 0.346. In addition, in series [3] (left femur, OVX + Vehicle 11.819 ± 0.333), the “Diaphyseal region Periosteal circumference length” value is recorded as 11.729 ± 0.455 mm. Also, the “Metaphyseal region Area Total area” value in series [3] (left femur, OVX + Vehicle 21.69 ± 1.61) was found to be 23.67 ± 1.34 mm^2. The “Metaphyseal region Bone density Cancellous bone” value in series [3] (left femur, OVX + Vehicle 192.9 ± 24.6) was determined as 253.4 ± 2.9 mg/mL. Further, the “Metaphyseal region Bone density Total density” value in series [3] (left femur, OVX + Vehicle 473.1 ± 29.3) worked out at 520.4 ± 31.7 mg/mL. In addition, the “Diaphyseal region Thickness” value in series [3] (cortical bone, left femur, OVX + Vehicle 0.551 ± 0.021) is 0.552 ± 0.038 mm. Besides, the “Diaphyseal region Area” value in series [3] (cortical bone, left femur, OVX + Vehicle 5.55 ± 0.02) is 5.50 ± 0.17 mm^2. The “Diaphyseal region Bone density” value in series [3] (cortical bone, left femur, OVX + Vehicle 1265.7 ± 15.9) is 1254.9 ± 14.6 mg/mL.
With `COC(=O)[C@H](Cc1c(Br)n(C(=O)OC(C)(C)C)c2cc(Br)c(OC)c(Br)c12)NC(C)=O` [Compound 5, (S)-(+)-N-acetyl-2,4,6-tribromo-1-t-butoxycarbonyl-5-methoxytryptophan methyl ester], the “TRAP activity: Amount … (mean ± standard error)” value in the series on osteoclasts [1] is recorded as 0.747 ± 0.063 nmol/g of scale/min. In the series with osteoblasts [2], the “ALP activity: Amount … (mean ± standard error)” value is given as 2.48 ± 0.42 nmol/g of scale/min.
The like results for `C=CCn1c(Br)c(C[C@H](NC(C)=O)C(=O)OC)c2c(Br)c(OC)c(Br)cc21` [Compound 6, (S)-(+)-N-acetyl-1-allyl-2,4,6-tribromo-5-methoxytryptophan methyl ester] were, in that order, 0.882 ± 0.106 nmol/g of scale/min and 2.39 ± 0.40 nmol/g of scale/min.
With `C#CCn1c(Br)c(C[C@H](NC(C)=O)C(=O)OC)c2c(Br)c(OC)c(Br)cc21` [Compound 7, (S)-(+)-N-acetyl-2,4,6-tribromo-5-methoxy-1-propargyltryptophan methyl ester], the “TRAP activity: Amount … (mean ± standard error)” value in the series with osteoclasts [1] was 0.838 ± 0.056 nmol/g of scale/min. The “ALP activity: Amount … (mean ± standard error)” value with osteoblasts [2] was 2.50 ± 0.51 nmol/g of scale/min.
For the compound `COC(=O)[C@H](Cc1c(Br)n(Cc2ccccc2)c2cc(Br)c(OC)c(Br)c12)NC(C)=O` [Compound 8, (S)-(+)-N-acetyl-1-benzyl-2,4,6-tribromo-5-methoxytryptophan methyl ester], the “TRAP activity: Amount … (mean ± standard error)” value in the series on osteoclasts [1] was 0.829 ± 0.047 nmol/g of scale/min. The “ALP activity: Amount … (mean ± standard error)” value with osteoblasts [2] is 1.17 ± 0.32 nmol/g of scale/min.
Consider `COc1ccc2[nH]cc(CCNC(C)=O)c2c1` [Melatonin, N-acetyl-5-methoxytryptamine, reference compound], for which, in the series on osteoclasts [1], the “TRAP activity: Amount … (mean ± standard error)” value was 0.467 ± 0.052 nmol/g of scale/min. In addition, the “action on osteoclasts (in words)” value with osteoclasts [1] (conclusion from Table 1) was “inhibitory”. Further, the “ALP activity: Amount … (mean ± standard error)” value in the series on osteoblasts [2] is listed as 1.06 ± 0.17 nmol/g of scale/min. Moreover, in the series on osteoblasts [2] (conclusion from Table 2), the “action on osteoblasts (in words)” value is given as “inhibitory”. For the same compound, in the series with osteoclasts [4], the “action on osteoclasts (in words), reported in Non-Patent Document 1” value was “inhibitory”. In addition, the “action on osteoblasts (in words), reported in Non-Patent Document 1” value in the series on osteoblasts [5] is “inhibitory”.
